Measured values published in patent publication US6084074A, “Stabilized aqueous liquid preparations of blood coagulation factor XIII” (Centeon Pharma GmbH, priority 1995, dated 2000).

Experiments:
[1] = tested on: human blood coagulation factor XIII; experiment: optimum concentration of stabilizers: residual factor XIII activity after 60° C. for 30 minutes (Example 1); type: physicochemical
Text: As for the measuring methods of factor XIII activity, fibrin formation, transglutaminase activity measurement, and immunologic measurement of antigen amount can be mentioned. Herein, the dansylcadaverine method (Nishida J., et al. Thromb. Res., vol. 36 pp. 123-131 (1984)) was adopted which can determine quantitatively the active factor XIII with high accuracy. Dansylcadaverine (purchased from YATRON) is a fluorescent amine which is the substrate of factor XIII, and forms dansylcadaverine-casein complex with casein by the action of factor XIII; the complex is separated by gel-filtration after the reaction and the factor XIII activity can be determined by the fluorescence intensity of the complex. The factor XIII activity is expressed by units; one unit is the amount of factor XIII which is contained in one milliliter of normal human plasma.
Optimum concentration of the present stabilizers was investigated.
To factor XIII produced according to the recombinant DNA technology as disclosed in DE 3804890 Al and incorporated by reference herein, (adjusted to the final titer of 100 units/ml with the water for injection according to the Pharmacopoeia of Japan) was added galactose, sucrose, D-sorbitol, sodium L-glutamate, sodium L-aspartate or L-histidine, and the mixture was warmed in a hot water bath at 60° C. for 30 minutes and then the activity of factor XIII was determined. Residual activity rate (%) of factor XIII was calculated, defining as 100% factor XIII activity of the preparation wherein factor XIII solution was adjusted to a titer of 100 units/ml.

[2] = tested on: factor XIII prepared by recombinant DNA technology; experiment: storage stabilizer effect on factor XIII prepared by recombinant DNA technology; type: physicochemical, human

galactose
effective concentration of stabilizer [1]: 1.25-40 w/v %

N[C@@H](Cc1c[nH]cn1)C(=O)O [L-Histidine, L-histidine]
Residual Activity Rate ([1]; additive conc. 0.125 w/v %): 62.2%
Residual Activity Rate ([1]; additive conc. 0.25 w/v %): 71.6%
Residual Activity Rate ([1]; additive conc. 0.5 w/v %): 78.4%
Residual Activity Rate ([1]; additive conc. 1.0 w/v %): 97.4%
Residual Activity Rate ([1]; additive conc. 2.0 w/v %): 65.3%

NC(=O)CC[C@H](N)C(=O)O [glutamine]
effect as storage stabilizer (in words) [2]: ineffective

OC[C@H]1O[C@@](CO)(O[C@H]2O[C@H](CO)[C@@H](O)[C@H](O)[C@H]2O)[C@@H](O)[C@@H]1O [Sucrose]
effective concentration of stabilizer [1]: 1.25-40 w/v %
Residual Activity Rate ([1]; additive conc. 1.25 w/v %): 86.7%
Residual Activity Rate ([1]; additive conc. 2.5 w/v %): 88.6%
Residual Activity Rate ([1]; additive conc. 5.0 w/v %): 90.0%
Residual Activity Rate ([1]; additive conc. 10 w/v %): 99.0%
Residual Activity Rate ([1]; additive conc. 15 w/v %): 100.0%
Residual Activity Rate ([1]; additive conc. 20 w/v %): 96.2%
Residual Activity Rate ([1]; additive conc. 40 w/v %): 75.7%

NCC(=O)O [Glycine]
effect as storage stabilizer (in words) [2]: ineffective

OC[C@@H](O)[C@@H](O)[C@H](O)[C@@H](O)CO [D-Sorbitol]
effective concentration of stabilizer [1]: 1.25-40 w/v %
Residual Activity Rate ([1]; additive conc. 1.25 w/v %): 73.8%
Residual Activity Rate ([1]; additive conc. 2.5 w/v %): 73.9%
Residual Activity Rate ([1]; additive conc. 5.0 w/v %): 74.5%
Residual Activity Rate ([1]; additive conc. 10 w/v %): 94.0%
Residual Activity Rate ([1]; additive conc. 15 w/v %): 98.4%
Residual Activity Rate ([1]; additive conc. 20 w/v %): 96.0%
Residual Activity Rate ([1]; additive conc. 40 w/v %): 86.9%

glucose
effect as storage stabilizer (in words) [2]: ineffective

N[C@@H](CCC(=O)[O-])C(=O)[O-].[Na+].[Na+] [Sodium L-glutamate, sodium L-glutamate]
Residual Activity Rate ([1]; additive conc. 0.125 w/v %): 76%
Residual Activity Rate ([1]; additive conc. 0.25 w/v %): 71.1%
Residual Activity Rate ([1]; additive conc. 0.5 w/v %): 98.6%
Residual Activity Rate ([1]; additive conc. 1.0 w/v %): 92.5%
Residual Activity Rate ([1]; additive conc. 2.0 w/v %): 87.8%
Residual Activity Rate ([1]; additive conc. 5.0 w/v %): 79.4%
Residual Activity Rate ([1]; additive conc. 10 w/v %): 65.3%

O=C(O)[C@@H]1C[C@@H](O)CN1 [hydroxyproline]
effect as storage stabilizer (in words) [2]: ineffective

N[C@@H](CC(=O)[O-])C(=O)[O-].[Na+].[Na+] [Sodium L-aspartate, sodium L-aspartate]
Residual Activity Rate ([1]; additive conc. 0.125 w/v %): 83.3%
Residual Activity Rate ([1]; additive conc. 0.25 w/v %): 80.9%
Residual Activity Rate ([1]; additive conc. 0.5 w/v %): 93.3%
Residual Activity Rate ([1]; additive conc. 1.0 w/v %): 101.1%
Residual Activity Rate ([1]; additive conc. 2.0 w/v %): 66.5%
Residual Activity Rate ([1]; additive conc. 5.0 w/v %): 58.8%
Residual Activity Rate ([1]; additive conc. 10 w/v %): 55.4%

C[C@H](N)C(=O)O [alanine]
effect as storage stabilizer (in words) [2]: ineffective
